Assay results as given in US11285135B2 (AMGEN INC., priority 2016, dated 2022).
Where two headings read alike, the source gives them in different places.

Assays:
[1] = biological target: GDP-bound protein (aa 1-169), containing both G12C and C118A amino acid substitutions (Homo sapiens, UniProt P01116, C118A/G12C); assay: Coupled Nucleotide Exchange Assay (SOS-mediated nucleotide exchange, AlphaScreen); format: biochemical; details: 2 hours compound pre-incubation
How it was run: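 His-tagged GDP-bound […] (aa 1-169, G12C/C118A) pre-incubated 2 h with compound titration in 25 mM HEPES pH 7.4, 10 mM MgCl2, 0.01% Triton X-100.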

[2] = tested on: Phosphorylation of ERK½ in MIA PaCa-2 cells; assay: Phospho-ERK½ MSD Assay in MIA PaCa-2 cells; format: cell-based; details: 4 hours compound treatment, 10 ng/mL EGF for 10 min, read-out: p-ERK IC50 (MIA PaCa-2)
Protocol: (§1) Phospho-ERK½ MSD Assay: MIA PaCa-2 (ATCC® CRL-1420™) and A549 (ATCC® CCL-185™) cells were cultured in RPMI 1640 Medium (ThermoFisher Scientific 11875093) containing 10% fetal bovine serum (ThermoFisher Scientific 16000044) and 1× penicillin-streptomycin-glutamine (ThermoFisher Scientific 10378016). Sixteen hours prior to compound treatment, MIA PaCa-2 or A549 cells were seeded in 96-well cell culture plates at a density of 25,000 cells/well and incubated at 37° C., 5% CO2. A compound dose-response titration was diluted in growth media, added to appropriate wells of a cell culture plate, and then incubated at 37° C., 5% CO2 for 4 hours. Following compound treatment, cells were stimulated with 10 ng/mL EGF (Roche 11376454001) for 10 min, washed with ice-cold Dulbecco's phosphate-buffered saline, no Ca^2+ or Mg^2+ (ThermoFisher Scientific 14190144), and then lysed in RIPA buffer (50 mM Tris-HCl pH 7.5, 1% Igepal, 0.5% sodium deoxycholate, 150 mM NaCl, and 0.5% sodium dodecyl sulfate) containing protease inhibitors (Roche 4693132001) and phosphatase inhibitors (Roche 4906837001). Cell lysates were stored frozen at −80° C. overnight. Phosphorylation of ERK½ in compound-treated lysates was assayed using Phospho-ERK½ Whole Cell Lysate kits (Meso Scale Discovery K151DWD) according to the manufacturer's protocol. Assay plates were read on a Meso Scale Discovery Sector Imager 6000, and data were analyzed using a 4-parameter logistic model to calculate IC50 values.

[3] = tested on: Phosphorylation of ERK½ in A549 cells; assay: Phospho-ERK½ MSD Assay in A549 cells; format: cell-based; details: 4 hours compound treatment, 10 ng/mL EGF for 10 min, read-out: p-ERK IC50 (A549)
Protocol: as §1

[4] = Homo sapiens, MIA PaCa-2, MIA PaCa-2 cells

Sequence of GDP-bound protein (aa 1-169), containing both G12C and C118A amino acid substitutions (P01116 1-169 isoform P01116-2 G12C/C118A): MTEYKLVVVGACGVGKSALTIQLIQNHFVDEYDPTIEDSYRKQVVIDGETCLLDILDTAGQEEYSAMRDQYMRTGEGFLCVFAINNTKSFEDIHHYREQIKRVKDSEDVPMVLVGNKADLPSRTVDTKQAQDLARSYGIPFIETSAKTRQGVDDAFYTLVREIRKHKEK

Compound	Coupled exchange IC50 [1] [µM]	IC50 [2, 4] [µM]	IC50 ([3]; Homo sapiens, A549, A549 cells) [µM]	IC50 ([2]; MIA PaCa-2 cells) [µM]	IC50 ([3]; A549 cells) [µM]
C=CC(=O)N1CCN(c2snc3c(F)c(-c4c(C)ccc5[nH]ncc45)c(Cl)cc23)CC1 [Example 3-5, 1-(4-(5-chloro-7-fluoro-6-(5-methyl-1H-indazol-4-yl)-2,1-benzothiazol-3-yl)-1-piperazinyl)-2-propen-1-one]	0.693	5.26	3.7	–	–
C=CC(=O)N1CCN(c2nc(=O)n(-c3ccccc3C(C)C)c3cc(-c4cc(O)cc5ccccc45)c(Cl)cc23)CC1 [Example 9-13, 6-chloro-7-(3-hydroxy-1-naphthalenyl)-1-(2-(2-propanyl)phenyl)-4-(4-(2-propenoyl)-1-piperazinyl)-2(1H)-quinazolinone]	0.306	0.078	12.8	–	–
C=CC(=O)N1CCN(c2snc3c(F)c(-c4nc(N)ccc4Cl)c(Cl)cc23)CC1 [Example 6-1, 1-(4-(6-(6-Amino-3-chloro-2-pyridinyl)-5-chloro-7-fluoro-2,1-benzothiazol-3-yl)-1-piperazinyl)-2-propen-1-one]	0.537	1.3	3.7	–	–
C=CC(=O)N1CCN(c2nc(=O)n(-c3ccccc3C(C)C)c3cc(-c4c(O)cccc4F)c(Cl)cc23)[C@@H](C)C1 (single isomer, unassigned) [Example 8-3-2]	0.340	–	–	0.028	> 100
C=CC(=O)N1CCN(c2snc3c(F)c(-c4cc(O)cc5ccccc45)c(Cl)cc23)[C@@H](C)C1 (single isomer, unassigned) [Example 1-19-2]	5.10	–	–	> 100	> 100
C=CC(=O)N1CCN(c2nnc(Cc3ccc(F)cc3)c3cc(-c4c(O)cccc4F)c(Cl)cc23)CC1 [Example 29, 1-(4-(7-Chloro-4-(4-fluorobenzyl)-6-(2-fluoro-6-hydroxyphenyl)-1-phthalazinyl)-1-piperazinyl)-2-propen-1-one]	3.76	> 100	> 100	–	–
C=CC(=O)N1CCN(c2snc3c(F)c(-c4c(O)cccc4F)c(Cl)cc23)C(C(F)F)C1 (racemic) [Example 2-9, 1-(4-(5-chloro-7-fluoro-6-(2-fluoro-6-hydroxyphenyl)-2,1-benzothiazol-3-yl)-3-(difluoromethyl)-1-piperazinyl)-2-propen-1-one]	0.301	0.747	> 100	–	–
C=CC(=O)N1CCN(c2snc3c(F)c(-c4cc(O)c(F)cc4Cl)c(Cl)cc23)CC1 [Example 3-18, 1-(4-(5-chloro-6-(2-chloro-4-fluoro-5-hydroxyphenyl)-7-fluoro-2,1-benzothiazol-3-yl)-1-piperazinyl)-2-propen-1-one]	2.60	> 100	> 100	–	–
C=CC(=O)N1CCN(c2snc3c(F)c(-c4cc(O)cc5ccccc45)c(Cl)cc23)[C@@H](CF)C1 (racemic) [Example 7-2, 1-(4-(5-chloro-7-fluoro-6-(3-hydroxy-1-naphthalenyl)-2,1-benzothiazol-3-yl)-3-(fluoromethyl)-1-piperazinyl)-2-pxopen-1-one]	0.180	0.222	> 100	–	–
C=CC(=O)N1CCN(c2snc3cc(-c4c(O)cccc4F)c(Cl)cc23)CC1 [Example 1-6, 1-(4-(5-chloro-6-(2-fluoro-6-hydroxyphenyl)-2,1-benzothiazol-3-yl)-1-piperazinyl)-2-propen-1-one]	2.88	36.2	> 100	–	–
C=CC(=O)N1CC[C@H]2[C@@H]1CN2c1snc2c(F)c(-c3cc(O)cc4ccccc34)c(Cl)cc12 [Example 5-6, 1-((1S,5S)-6-(5-chloro-7-fluoro-6-(3-hydroxy-1-naphthalenyl)-2,1-benzothiazol-3-yl)-2,6-diazabicyclo[3.2.0]heptan-2-yl)-2-propen-1-one]	0.883	5.9	> 100	–	–
